# Biological target: T1, CBL-B (Homo sapiens, UniProt Q13191)
# T1 construct: GST
# Experiment: CBL-B TR-FRET IC50 screening (E1/E2 ubiquitination, Biotin-Ubiquitin, Anti GST-Tb donor / Streptavidin-d2 acceptor)
# Format: biochemical
# Details: CBL-B 10 nM final; 11-point titration from 100 uM; binned A-F; read-out: CBL-B TR-FRET activity IC50
# T1 sequence (Q13191 whole entry): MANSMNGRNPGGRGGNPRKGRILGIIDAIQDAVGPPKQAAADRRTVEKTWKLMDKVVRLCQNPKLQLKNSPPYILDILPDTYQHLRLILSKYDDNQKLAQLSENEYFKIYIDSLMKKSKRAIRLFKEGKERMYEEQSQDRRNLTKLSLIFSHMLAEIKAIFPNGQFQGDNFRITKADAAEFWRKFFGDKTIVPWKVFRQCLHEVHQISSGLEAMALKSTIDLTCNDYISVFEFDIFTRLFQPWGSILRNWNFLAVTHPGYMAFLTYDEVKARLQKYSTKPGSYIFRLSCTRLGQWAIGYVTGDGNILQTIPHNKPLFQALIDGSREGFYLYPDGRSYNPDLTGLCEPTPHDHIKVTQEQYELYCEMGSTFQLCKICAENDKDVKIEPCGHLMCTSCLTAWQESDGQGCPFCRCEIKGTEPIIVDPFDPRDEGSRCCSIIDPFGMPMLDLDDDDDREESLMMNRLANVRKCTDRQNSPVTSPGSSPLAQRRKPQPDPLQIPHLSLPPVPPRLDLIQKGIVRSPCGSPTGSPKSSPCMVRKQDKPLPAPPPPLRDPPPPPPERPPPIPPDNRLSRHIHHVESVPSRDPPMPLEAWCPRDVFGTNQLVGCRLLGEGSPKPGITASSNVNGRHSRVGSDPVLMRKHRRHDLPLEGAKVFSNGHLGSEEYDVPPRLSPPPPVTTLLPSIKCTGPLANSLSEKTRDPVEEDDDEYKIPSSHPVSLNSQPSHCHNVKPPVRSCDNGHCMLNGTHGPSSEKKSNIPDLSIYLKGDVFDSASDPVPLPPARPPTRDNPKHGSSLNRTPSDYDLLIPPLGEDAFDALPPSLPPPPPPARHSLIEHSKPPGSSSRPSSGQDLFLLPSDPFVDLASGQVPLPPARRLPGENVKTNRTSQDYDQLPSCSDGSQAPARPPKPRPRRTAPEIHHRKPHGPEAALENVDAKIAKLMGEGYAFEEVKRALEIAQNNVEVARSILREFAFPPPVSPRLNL
row,IC50 [nM],Compound
1,301 to 1000,C[C@@H]1CN(Cc2cc(C(F)(F)F)c3cn(-c4cccc(C5(Cc6nncn6C)COC5)c4)c(=O)n3c2)CCC1(F)F [Compound 72]
2,100 to 300,Cn1cnnc1CC1(c2cccc(-n3cc4c(C(F)(F)F)cc(CN5CC[C@H](O)C5)cn4c3=O)c2)COC1 [Compound 129]
3,> 10000,"Cc1sc(C#N)nc1[C@@H](c1cccc(-n2cc3c(C(F)(F)F)cc(CN4CCC[C@H](C)C4)cn3c2=O)c1)C1CCC1 (single isomer, unassigned) [Compound 369]"
4,< 100,COC1(CNCc2cc(C(F)(F)F)c3cn(-c4cccc(C5(Cc6nncn6C)COC5)c4)c(=O)n3c2)CC1 [Compound 252]
5,3000 to 10000,C[C@H]1CN(Cc2cc(C(F)(F)F)c3cn(-c4cccc(C5(Cc6nncn6C)COC5)c4)c(=O)n3c2)CCC1(F)F [Compound 73]
6,< 100,"CO[C@@H]1CCCN(Cc2cc(C(F)(F)F)c3cn(-c4cccc([C@H](c5nncn5C)C5CCC5)c4)c(=O)n3c2)CC1 (single isomer, unassigned) [Compound 264]"
7,> 10000,"COCCn1cc(C)c([C@H](c2cccc(-n3cc4c(C(F)(F)F)cc(CN5CCC[C@H](C)C5)cn4c3=O)c2)C2CCC2)n1 (single isomer, unassigned) [Compound 336]"
8,100 to 300,"C[C@H]1CCCN(Cc2cc(C(F)(F)F)c3cn(-c4cccc([C@H](c5nncn5C)C5CC(F)(F)C5)c4)c(=O)n3c2)C1 (single isomer, unassigned) [Compound 343]"
9,< 100,C[C@H]1CCCCN1Cc1cc(C(F)(F)F)c2cn(-c3cccc([C@@H](c4nncn4C)C4CCC4)c3)c(=O)n2c1 [Compound 362_P1]
10,> 10000,"Cc1sc(C#N)nc1[C@H](c1cccc(-n2cc3c(C(F)(F)F)cc(CN4CCC[C@H](C)C4)cn3c2=O)c1)C1CCC1 (single isomer, unassigned) [Compound 371]"
11,< 100,Cn1cnnc1C1(c2cccc(-n3cc4c(C(F)(F)F)cc(CN5CCc6ncsc6C5)cn4c3=O)c2)CC2(CC2)C1 [Compound 307]
12,100 to 300,C[C@@H](c1cc(C(F)(F)F)c2cn(-c3cccc(C4([C@H](F)c5nncn5C)COC4)c3)c(=O)n2c1)N1CCC2(CC2)C1 [Compound 54]
13,1000 to 3000,"CC1CN(Cc2cc(C(F)(F)F)c3cn(-c4cccc([C@@H](c5nncn5C)C5CCC5)c4)c(=O)n3c2)CCC1(F)F (single isomer, unassigned) [Compound 170]"
14,< 100,"C[C@@H]1CCCCN(Cc2cc(C(F)(F)F)c3cn(-c4cccc([C@H](c5nncn5C)C5CCC5)c4)c(=O)n3c2)C1 (single isomer, unassigned) [Compound 274]"
15,< 100,"CC1CC(c2cccc(-n3cc4c(C(F)(F)F)cc(Br)cn4c3=O)c2)(c2nncn2C)C1 (single isomer, unassigned) [Compound 150]"
16,< 100,"[2H]C([2H])([2H])n1cnnc1[C@@H](c1cccc(-n2cc3c(C(F)(F)F)cc(CN4CCO[C@H](C)C4)cn3c2=O)c1)C1CCC1 (single isomer, unassigned) [Compound 137]"
17,3000 to 10000,"CC1CN(Cc2cc(C(F)(F)F)c3cn(-c4cccc([C@@H](c5nncn5C)C5CCC5)c4)c(=O)n3c2)CCC1(F)F (single isomer, unassigned) [Compound 169]"
18,100 to 300,Cn1cnnc1CC1(c2cccc(-n3cc4c(C(F)(F)F)cc(F)cn4c3=O)c2)COC1 [Compound 104]

row,IC50 [nM],Compound
1,< 100,"C[C@H]1CCCN(Cc2cc(C(F)(F)F)c3cn(-c4cc(F)cc([C@H](c5nncn5C)C5CCC5)c4)c(=O)n3c2)C1 (single isomer, unassigned) [Compound 243]"
2,> 10000,CN1CC(Cc2nncn2C)(c2cccc(-n3cc4c(C(F)(F)F)cccn4c3=O)c2)C1 [Compound 188]
3,< 100,[2H]C([2H])([2H])n1cnnc1CC1(c2cccc(-n3cc4c(C(F)(F)F)cc(CN5CCO[C@H](C)C5)cn4c3=O)c2)COC1 [Compound 199]
4,> 10000,Cc1c2c(C(F)(F)F)cccn2c(=O)n1-c1cccc(C(C)Cc2nncn2C)c1 (centres unmarked) [Compound 27]
5,< 100,"CC(c1cc(C(F)(F)F)c2cn(-c3cccc([C@@H](c4nncn4C)C4CCC4)c3)c(=O)n2c1)N1CCC[C@H](C)C1 (single isomer, unassigned) [Compound 192]"
6,< 100,Cn1cnnc1CC1(c2cccc(-n3cc4c(C(F)(F)F)cc(CN5CCOC(C)(C)C5)cn4c3=O)c2)COC1 [Compound 153]
7,301 to 1000,CN1CCN(Cc2cc(C(F)(F)F)c3cn(-c4cccc([C@@H](c5nncn5C)C5CCC5)c4)c(=O)n3c2)CC1=O [Compound 364_P1]
8,< 100,C[C@H]1CCCN(Cc2cc(C(F)(F)F)c3cn(-c4cccc(N(c5nncn5C)C5COC5)c4)c(=O)n3c2)C1 [Compound 334]
9,> 10000,CC(=O)N(c1cccc(-n2cc3c(C(F)(F)F)cccn3c2=O)c1)c1nncn1C [Compound 208]
10,> 10000,"CC(C)C[C@@H](c1cccc(-n2cc3c(C(F)(F)F)cc(CN4CCC[C@H](C)C4)cn3c2=O)c1)c1nncn1C (single isomer, unassigned) [Compound 152]"
11,< 100,COc1cc(-n2cc3c(C(F)(F)F)cc(CN4CCC(C)(F)CC4)cn3c2=O)cc(C2(Cc3nncn3C)COC2)c1 [Compound 121]
12,> 10000,Cn1cnnc1CC1(n2cc(-n3cc4c(C(F)(F)F)cccn4c3=O)cn2)COC1 [Compound 146]
13,< 100,Cn1cnnc1C1(c2cccc(-n3cc4c(C(F)(F)F)cc(CN5CC[C@H](F)C5)cn4c3=O)c2)CC2(CC2)C1 [Compound 117]
14,> 10000,"Cc1conc1[C@@H](c1cccc(-n2cc3c(C(F)(F)F)cc(CN4CCC[C@H](C)C4)cn3c2=O)c1)C1CCC1 (single isomer, unassigned) [Compound 303]"
15,< 100,Cn1cnnc1[C@]1(c2cccc(-n3cc4c(C(F)(F)F)cc(CN5CCC(F)CC5)cn4c3=O)c2)C[C@@H](C)C1 [Compound 229]
16,> 10000,"C[C@H]1CCCN(Cc2cc(C(F)(F)F)c3cn(-c4cccc([C@@H](c5nncn5C)C5CCOCC5)c4)c(=O)n3c2)C1 (single isomer, unassigned) [Compound 359]"
17,< 100,"Cn1cnnc1[C@@H](c1cccc(-n2cc3c(C(F)(F)F)cc(CN4CC5(CC5)C4)cn3c2=O)c1)C1CCC1 (single isomer, unassigned) [Compound 165]"
18,< 100,[2H]C([2H])([2H])n1cnnc1C1(c2cccc(-n3cc4c(C(F)(F)F)cc(CN5CCO[C@H](C)C5)cn4c3=O)c2)CC2(CC2)C1 [Compound 118]

# Same assay, conditions: second part of Table 2 (head 'Patent Cmpd No / Updated Activity'); same CBL-B TR-FRET IC50 bins A-F; read-out: Updated Activity
row,IC50 [nM],Compound
1,< 100,C[C@H]1CCCN([C@H](C)c2cc(C(F)(F)F)c3cn(-c4cccc(C5(c6nncn6C)CCC5)c4)c(=O)n3c2)C1 [Compound 506_P1]
2,3000 to 10000,"Cn1cnnc1[C@H](c1cc(-c2ccns2)cc(-n2cc3c(C(F)(F)F)cccn3c2=O)c1)C1CCC1 (single isomer, unassigned) [Compound 458]"
3,< 100,COC[C@H]1CCN1Cc1cc(C(F)(F)F)c2cn(-c3cccc([C@H](c4nncn4C)C4CCC4)c3)c(=O)n2c1 [Compound 548]
4,< 100,COCCS(=O)(=O)N(C)Cc1cc(C(F)(F)F)c2cn(-c3cccc([C@H](c4nncn4C)C4CCC4)c3)c(=O)n2c1 [Compound 594]
5,< 100,CCN(Cc1cc(C(F)(F)F)c2cn(-c3cccc([C@H](c4nncn4C)C4CCC4)c3)c(=O)n2c1)S(=O)(=O)CC [Compound 592]
6,< 100,Cn1cnnc1[C@@H](c1cccc(-n2cc3c(C(F)(F)F)cc(CN4CCNS4(=O)=O)cn3c2=O)c1)C1CCC1 [Compound 542]
7,< 100,"CO[C@H]1C[C@@](c2cccc(-n3cc4c(C(F)(F)F)cc([C@H](C)N5CC[C@H](F)C5)cn4c3=O)c2)(c2nncn2C)C1 (single isomer, unassigned) [Compound 616]"
8,> 10000,"Cn1cnnc1[C@@H](c1cc(-c2cncnc2)cc(-n2cc3c(C(F)(F)F)cccn3c2=O)c1)C1CCC1 (single isomer, unassigned) [Compound 448]"
9,> 10000,Cn1cnnc1[C@@H](c1cc(-n2cc3c(C(F)(F)F)cccn3c2=O)cs1)C1CCC1 [Compound 403_P1]
10,< 100,[2H]C([2H])(c1cc(C(F)(F)F)c2cn(-c3cccc([C@H](c4nncn4C)C4CCC4)c3)c(=O)n2c1)N1CCC2(CC2)C1 [Compound 505]
11,301 to 1000,"Cn1cnnc1[C@@H](c1cc(F)cc(-n2cc3c(C(F)(F)F)cc(CN4CCC5(CC5)C4)cn3c2=O)c1)C1CCC1 (single isomer, unassigned) [Compound 510]"
12,> 10000,"COCC[C@@H](c1cccc(-n2cc3c(C(F)(F)F)cc(CN4CCC[C@H](C)C4)cn3c2=O)c1)c1nncn1C (single isomer, unassigned) [Compound 400]"
13,< 100,"CO[C@H]1C[C@@](c2cccc(-n3cc4c(C(F)(F)F)cc([C@@H](C)N5CCC[C@H](C)C5)cn4c3=O)c2)(c2nncn2C)C1 (single isomer, unassigned) [Compound 600]"
14,< 100,C[C@H]1CCC[N+]([O-])(Cc2cc(C(F)(F)F)c3cn(-c4cccc([C@H](c5nncn5C)C5CCC5)c4)c(=O)n3c2)C1 (some centres unmarked) [Compound 563]
15,> 10000,"Cn1cnnc1[C@@H](c1cc(-c2ccncc2)cc(-n2cc3c(C(F)(F)F)cccn3c2=O)c1)C1CCC1 (single isomer, unassigned) [Compound 446]"
16,100 to 300,Cn1cnnc1[C@@H](c1cccc(-n2cc3c(C(F)(F)F)cc(C(=O)N4CCC5(CC5)C4)cn3c2=O)c1)C1CCC1 [Compound 429]
17,< 100,"C[C@H](c1cc(C(F)(F)F)c2cn(-c3cccc([C@H](c4nncn4C)C4CCC4)c3)c(=O)n2c1)N1CC[C@@H](F)C1 (single isomer, unassigned) [Compound 500]"
18,> 10000,"C[C@H]1CCCN(Cc2cc(C(F)(F)F)c3cn(-c4cccc([C@@H](c5nncn5C(F)F)C5CCC5)c4)c(=O)n3c2)C1 (single isomer, unassigned) [Compound 463]"
19,< 100,COCCn1ccnc1-c1cc(C(F)(F)F)c2cn(-c3cccc([C@H](c4nncn4C)C4CCC4)c3)c(=O)n2c1 [Compound 502]
20,< 100,COCCN(Cc1cc(C(F)(F)F)c2cn(-c3cccc([C@H](c4nncn4C)C4CCC4)c3)c(=O)n2c1)S(C)(=O)=O [Compound 593]
